According to ChEMBL document CHEMBL4321836, “Discovery of BAY-298 and BAY-899: Tetrahydro-1,6-naphthyridine-Based, Potent, and Selective Antagonists of the Luteinizing Hormone Receptor Which Reduce Sex Hormone Levels in Vivo” (J Med Chem, 2019):
One block for each compound: values may come before it.

What was measured:
[1] = target: Histamine H1 receptor (Homo sapiens) (UniProt P35367); assay: Antagonist activity at human histamine H1 receptor expressed in HEK293 cells at 10 uM by Fluorimetric method relative to control; assay type: cell-based; set-up: scale not given: the % may be the effect or the level left
Sequence of Histamine H1 receptor (Homo sapiens) (P35367 whole entry): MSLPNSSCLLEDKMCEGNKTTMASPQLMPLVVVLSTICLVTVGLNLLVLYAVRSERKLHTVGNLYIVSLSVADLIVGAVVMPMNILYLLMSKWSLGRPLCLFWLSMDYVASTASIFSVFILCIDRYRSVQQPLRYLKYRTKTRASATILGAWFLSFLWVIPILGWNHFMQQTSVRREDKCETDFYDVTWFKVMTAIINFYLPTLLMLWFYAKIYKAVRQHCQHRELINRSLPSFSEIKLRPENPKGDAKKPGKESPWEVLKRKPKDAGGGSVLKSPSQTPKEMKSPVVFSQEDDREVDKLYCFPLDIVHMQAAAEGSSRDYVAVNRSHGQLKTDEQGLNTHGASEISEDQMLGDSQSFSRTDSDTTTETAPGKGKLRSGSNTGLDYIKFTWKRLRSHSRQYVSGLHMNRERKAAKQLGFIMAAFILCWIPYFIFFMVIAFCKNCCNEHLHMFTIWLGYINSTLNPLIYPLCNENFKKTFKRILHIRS

[2] = target: T1, Adenosine receptor A3 (Homo sapiens) (UniProt P0DMS8); assay: Antagonist activity at human A3 receptor expressed in CHO-K1 cells at 10 uM after 20 mins by HTRF assay relative to control; assay type: cell-based; set-up: scale not given: the % may be the effect or the level left
T1 sequence (whole entry): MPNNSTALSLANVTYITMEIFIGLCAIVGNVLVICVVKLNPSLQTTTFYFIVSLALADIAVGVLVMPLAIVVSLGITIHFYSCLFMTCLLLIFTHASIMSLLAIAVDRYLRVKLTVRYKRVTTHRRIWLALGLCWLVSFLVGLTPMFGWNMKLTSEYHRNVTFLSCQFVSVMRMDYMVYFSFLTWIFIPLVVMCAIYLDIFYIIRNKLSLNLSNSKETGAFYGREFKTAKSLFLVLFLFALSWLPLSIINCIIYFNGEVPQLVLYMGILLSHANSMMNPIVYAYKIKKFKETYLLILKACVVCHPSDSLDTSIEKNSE

[3] = target: Substance-P receptor (Homo sapiens) (UniProt P25103); assay: Antagonist activity at human NK1 receptor expressed in U373 MG cells at 10 uM by fluorimetric method relative to control; assay type: cell-based; set-up: scale not given: the % may be the effect or the level left; conditions: U-373MG ATCC
Sequence of Substance-P receptor (Homo sapiens) (P25103 whole entry): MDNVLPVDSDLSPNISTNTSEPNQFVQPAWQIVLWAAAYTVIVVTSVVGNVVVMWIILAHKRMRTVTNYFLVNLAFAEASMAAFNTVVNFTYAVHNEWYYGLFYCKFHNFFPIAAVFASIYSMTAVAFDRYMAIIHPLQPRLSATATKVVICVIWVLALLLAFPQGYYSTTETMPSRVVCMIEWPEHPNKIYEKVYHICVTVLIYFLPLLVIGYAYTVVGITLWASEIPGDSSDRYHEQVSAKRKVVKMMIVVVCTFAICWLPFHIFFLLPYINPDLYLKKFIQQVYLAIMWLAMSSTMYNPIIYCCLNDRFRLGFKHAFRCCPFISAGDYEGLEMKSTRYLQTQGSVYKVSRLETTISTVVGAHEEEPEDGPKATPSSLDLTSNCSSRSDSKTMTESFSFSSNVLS

Cytochrome P450 2C8 = Cytochrome P450 2C8 (Homo sapiens, UniProt P10632); assay: Inhibition of CYP2C8 in human liver microsomes using amodiaquine as substrate by LC-MS/MS analysis; assay type: ADME
Sequence of Cytochrome P450 2C8 (P10632 whole entry): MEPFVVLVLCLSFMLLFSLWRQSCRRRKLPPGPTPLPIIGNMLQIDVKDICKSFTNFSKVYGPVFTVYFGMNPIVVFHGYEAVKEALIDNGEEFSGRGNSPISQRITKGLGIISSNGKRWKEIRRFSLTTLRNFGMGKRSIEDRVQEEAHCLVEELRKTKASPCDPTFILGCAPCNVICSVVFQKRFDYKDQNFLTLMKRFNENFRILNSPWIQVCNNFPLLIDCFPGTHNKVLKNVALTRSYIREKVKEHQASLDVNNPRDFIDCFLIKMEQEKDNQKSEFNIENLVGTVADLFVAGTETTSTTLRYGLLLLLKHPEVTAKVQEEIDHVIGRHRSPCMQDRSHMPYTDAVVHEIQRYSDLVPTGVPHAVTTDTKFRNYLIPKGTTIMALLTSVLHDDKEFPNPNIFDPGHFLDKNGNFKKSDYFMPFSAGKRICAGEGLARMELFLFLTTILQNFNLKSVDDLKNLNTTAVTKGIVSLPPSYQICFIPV

[4] = Efflux ratio of apparent permeability from basolateral to apical over apical to basolateral side in human Caco2 cells at 2 uM after 2 hrs by LC-MS/MS analysis; assay type: ADME, cell-based; conditions: Caco-2
[5] = target: D(2) dopamine receptor (Homo sapiens) (UniProt P14416); assay: Antagonist activity at human Dopamine D2L receptor expressed in CHO-K1 cells at 10 uM by Fluorimetric analysis relative to control; assay type: cell-based; set-up: scale not given: the % may be the effect or the level left
Sequence of D(2) dopamine receptor (Homo sapiens) (P14416 whole entry): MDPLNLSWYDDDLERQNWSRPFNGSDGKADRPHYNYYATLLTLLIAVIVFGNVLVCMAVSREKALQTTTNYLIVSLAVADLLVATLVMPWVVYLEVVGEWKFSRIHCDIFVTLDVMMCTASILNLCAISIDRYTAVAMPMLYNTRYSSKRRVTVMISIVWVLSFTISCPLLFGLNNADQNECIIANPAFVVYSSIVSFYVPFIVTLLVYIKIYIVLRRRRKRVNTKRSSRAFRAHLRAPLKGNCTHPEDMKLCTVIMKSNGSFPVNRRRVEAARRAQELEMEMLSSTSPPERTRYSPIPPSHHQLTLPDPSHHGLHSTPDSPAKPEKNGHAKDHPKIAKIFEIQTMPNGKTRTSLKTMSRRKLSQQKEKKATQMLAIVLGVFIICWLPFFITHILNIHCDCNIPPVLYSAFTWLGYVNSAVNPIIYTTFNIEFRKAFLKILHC

[6] = target: Lutropin-choriogonadotropic hormone receptor (Rattus norvegicus, UniProt P16235); assay: Antagonist activity at rat luteinizing hormone receptor expressed in rat ovary granulosa GLHR15 cell suspension assessed as reduction in agonist-induced cAMP production preincubated for 30 mins followed by agonist solution addition after 30 mins by cell based TR-FRET assay; assay type: functional
Sequence of Lutropin-choriogonadotropic hormone receptor (Rattus norvegicus, UniProt P16235) (P16235 whole entry): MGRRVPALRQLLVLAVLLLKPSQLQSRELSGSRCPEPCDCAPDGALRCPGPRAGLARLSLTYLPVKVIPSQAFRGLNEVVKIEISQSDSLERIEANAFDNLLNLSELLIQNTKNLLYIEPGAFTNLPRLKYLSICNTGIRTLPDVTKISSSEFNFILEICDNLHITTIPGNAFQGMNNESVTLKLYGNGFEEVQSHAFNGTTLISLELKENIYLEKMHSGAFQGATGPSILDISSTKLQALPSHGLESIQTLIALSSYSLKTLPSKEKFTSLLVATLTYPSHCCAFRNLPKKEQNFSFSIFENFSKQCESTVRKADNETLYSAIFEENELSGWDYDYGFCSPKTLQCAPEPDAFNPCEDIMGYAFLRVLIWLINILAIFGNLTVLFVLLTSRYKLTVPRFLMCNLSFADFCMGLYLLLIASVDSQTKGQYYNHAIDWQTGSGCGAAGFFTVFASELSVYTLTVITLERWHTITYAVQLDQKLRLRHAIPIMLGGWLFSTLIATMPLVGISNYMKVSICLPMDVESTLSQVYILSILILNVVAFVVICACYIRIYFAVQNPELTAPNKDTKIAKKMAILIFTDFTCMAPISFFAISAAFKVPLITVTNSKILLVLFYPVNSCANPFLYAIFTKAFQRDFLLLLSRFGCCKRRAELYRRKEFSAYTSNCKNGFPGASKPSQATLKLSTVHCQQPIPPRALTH

[7] = Plasma concentration in female rat at 4.5 to 72 mg/kg, po administered once daily for 8 days and measured on day 8; assay type: ADME, organism-based
Rattus norvegicus [8] = assay: Reversal of human luteinizing hormone-induced suppression of aromatase mRNA expression in cetrorelix-treated iv dosed female rat after 2 hrs by Taqman probe based RT-PCR analysis; assay type: functional, organism-based
[9] = Free plasma concentration in female rat at 4.5 to 72 mg/kg, po administered once daily for 8 days; assay type: ADME, organism-based; conditions: in vivo, 192 h
Rattus norvegicus [10] = assay: Downregulation of human luteinizing hormone-induced Egr-1 mRNA expression in cetrorelix-treated iv dosed female rat after 2 hrs by Taqman probe based RT-PCR analysis; assay type: functional, organism-based
[11] = target: T2, Lutropin-choriogonadotropic hormone receptor (Homo sapiens, UniProt P22888); assay: (§1) Negative allosteric modulation of human luteinizing hormone receptor assessed as Emax for Org 43553-induced agonist activity at 0.84 nM to 17 uM preincubated for 20 mins followed by 10 times EC80 of agonist addition and measured after 60 mins by cell based TR-FRET assay relative to control
T2 sequence (P22888 whole entry): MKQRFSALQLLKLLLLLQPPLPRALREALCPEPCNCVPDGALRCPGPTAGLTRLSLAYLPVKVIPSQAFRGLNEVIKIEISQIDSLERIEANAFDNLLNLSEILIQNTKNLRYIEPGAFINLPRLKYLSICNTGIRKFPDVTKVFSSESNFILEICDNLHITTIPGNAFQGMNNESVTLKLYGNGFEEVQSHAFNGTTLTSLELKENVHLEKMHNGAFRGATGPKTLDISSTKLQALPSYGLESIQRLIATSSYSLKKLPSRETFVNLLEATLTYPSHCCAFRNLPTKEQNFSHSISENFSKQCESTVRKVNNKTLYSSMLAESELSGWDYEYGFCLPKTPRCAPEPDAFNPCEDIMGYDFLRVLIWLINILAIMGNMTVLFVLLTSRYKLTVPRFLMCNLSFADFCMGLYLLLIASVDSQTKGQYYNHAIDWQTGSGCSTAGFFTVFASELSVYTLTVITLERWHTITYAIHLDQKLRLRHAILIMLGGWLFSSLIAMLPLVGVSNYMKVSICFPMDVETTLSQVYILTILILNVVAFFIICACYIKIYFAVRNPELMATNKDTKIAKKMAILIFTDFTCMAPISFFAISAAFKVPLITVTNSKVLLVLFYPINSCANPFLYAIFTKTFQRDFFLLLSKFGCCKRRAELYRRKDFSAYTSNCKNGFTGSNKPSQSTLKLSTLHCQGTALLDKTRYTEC

Rattus norvegicus [12] = assay: Downregulation of estradiol level in proestrus staged-female rat serum at 18 mg/kg, po administered once daily for 8 days and measured by radioimmunoassay method (reference value: 125 pmol/L); assay type: functional
[13] = target: T2, Lutropin-choriogonadotropic hormone receptor; assay: (§2) Negative allosteric modulation of human luteinizing hormone receptor assessed as Emax for Org 43553-induced agonist activity at 0.84 nM to 17 uM preincubated for 20 mins followed by 4 times EC80 of agonist addition and measured after 60 mins by cell based TR-FRET assay relative to control
[14] = target: T2, Lutropin-choriogonadotropic hormone receptor; assay: as §1, with “glycoprotein human luteinizing hormone-induced” for “Org 43553-induced”, “1” for “10”
Rattus norvegicus [15] = assay: Downregulation of estradiol level in po dosed proestrus staged-female rat serum administered once daily for 8 days and measured by radioimmunoassay method; assay type: functional, organism-based
[16] = target: T2, Lutropin-choriogonadotropic hormone receptor; assay: Negative allosteric modulation of human luteinizing hormone receptor assessed as Emax for Org 43553-induced agonist activity at 0.84 nM to 17 uM preincubated for 20 mins followed by 100 times EC80 of agonist addition and measured after 60 mins by cell based TR-FRET assay relative to control
Rattus norvegicus [17] = assay: Downregulation of human luteinizing hormone-induced RUNX1 mRNA expression in cetrorelix-treated iv dosed female rat after 2 hrs by Taqman probe based RT-PCR analysis; assay type: functional, organism-based
[18] = target: T2, Lutropin-choriogonadotropic hormone receptor; assay: Agonist activity at human luteinizing hormone receptor incubated for 60 mins by cell based TR-FRET assay
Rattus norvegicus [19] = assay: Downregulation of estradiol level in proestrus staged-female rat serum at 9 mg/kg, po administered once daily for 8 days and measured by radioimmunoassay method (reference value: 125 pmol/L); assay type: functional
[20] = target: T2, Lutropin-choriogonadotropic hormone receptor; assay: (§3) Negative allosteric modulation of human luteinizing hormone receptor assessed as Emax for Org 43553-induced agonist activity at 0.84 nM to 17 uM preincubated for 20 mins followed by 16 times EC80 of agonist addition and measured after 60 mins by cell based TR-FRET assay relative to control; conditions: at 0.00084 to 17 µM
[21] = target: T2, Lutropin-choriogonadotropic hormone receptor; assay: as §3, with “reduction in glycoprotein human luteinizing hormone-induced” for “Emax for Org 43553-induced”, “activity” for “activity at 0.84 nM to 17 uM”
[22] = target: T2, Lutropin-choriogonadotropic hormone receptor; assay: Negative allosteric modulation of human luteinizing hormone receptor assessed as Emax for Org 43553-induced agonist activity at 0.84 nM to 17 uM preincubated for 20 mins followed by 1 times EC80 of agonist addition and measured after 60 mins by cell based TR-FRET assay relative to control
Rattus norvegicus [23] = assay: Downregulation of human luteinizing hormone-induced progesterone expression in plasma of cetrorelix-treated female rat at 14 mg/kg, iv after 2 hrs by radioimmunoassay method (reference value: 243 nM); assay type: functional
Rattus norvegicus [24] = assay: Downregulation of human luteinizing hormone-induced testosterone expression in plasma of cetrorelix-treated iv dosed male rat at after 2 hrs by radioimmunoassay method; assay type: functional, organism-based
[25] = target: T2, Lutropin-choriogonadotropic hormone receptor; assay: as §2, with “glycoprotein human luteinizing hormone-induced” for “Org 43553-induced”
[26] = target: T2, Lutropin-choriogonadotropic hormone receptor; assay: Negative allosteric modulation of human luteinizing hormone receptor assessed as reduction in Org 43553-induced agonist activity preincubated for 20 mins followed by 100 times EC80 of agonist addition and measured after 60 mins by cell based TR-FRET assay relative to control
[27] = target: T2, Lutropin-choriogonadotropic hormone receptor; assay: Negative allosteric modulation of human luteinizing hormone receptor assessed as reduction in Org 43553-induced agonist activity preincubated for 20 mins followed by 16 times EC80 of agonist addition and measured after 60 mins by cell based TR-FRET assay relative to control
Rattus norvegicus [28] = assay: Downregulation of estradiol level in proestrus staged-female rat serum at 4.5 mg/kg, po administered once daily for 8 days and measured by radioimmunoassay method (reference value: 125 pmol/L); assay type: functional

- Activity [1]: < 70%
- Activity [2]: < 70%
- Activity [3]: < 70%
- IC50 (Cytochrome P450 2C8): 3100 nM
- efflux ratio at 2 h, 2 µM [4]: 1.1
- Activity [5]: < 70%
- IC50 [6]: 46 nM
Structure (SMILES): O=C(Nc1cnc(Oc2ccc(F)cc2)nc1)N1CCc2ncccc2[C@@H]1c1ccc(F)cc1 [BAY-899]

- concentration at 192 h [7]: 4 to 39 µM
- Activity (Rattus norvegicus [8]): Dose-dependent effect
- Activity [1]: < 70%
- Cp(f) [9]: 0.024 µM
- Emax [11]: 102%
- Emax [13]: 102%
- Emax [14]: 99%
- Activity [2]: < 70%
- Activity [3]: < 70%
- Emax [16]: 93%
- IC50 (Cytochrome P450 2C8): 700 nM
- EC50 [18]: > 16000 nM
- Emax [20]: 102%
- IC50 [21]: 2200 nM
- Emax [22]: 104%
- Emax [25]: 99%
- efflux ratio at 2 h, 2 µM [4]: 1.3
- IC50 [26]: 1500 nM
- IC50 [27]: 1700 nM
- Activity [5]: < 70%
- IC50 [6]: 23 nM
Structure (SMILES): O=C(Nc1ccc(Oc2ccc(F)cc2)cc1)N1CCc2ncccc2[C@@H]1c1ccc(Cl)cc1
- Activity (Rattus norvegicus [10]): Dose-dependent effect
- Activity (Rattus norvegicus [12]): 70 pmol/L
- Activity (Rattus norvegicus [15]): Dose-dependent effect
- Activity (Rattus norvegicus [17]): Dose-dependent effect
- Activity (Rattus norvegicus [19]): 80 pmol/L
- Activity (Rattus norvegicus [23]): 51 nM
- Activity (Rattus norvegicus [24]): Dose-dependent effect
- Activity (Rattus norvegicus [28]): 118 pmol/L
